Consider 4 compounds from patent publication US10967029B2, “Method of using Cistanche tubulosa extract to prevent, slow down, or treat an eye disease caused by oxidative stress” (Sinphar Pharmaceutical Co., Ltd., priority 2014, dated 2021).

In general, IC25 refers to the concentration needed for an effect of 25%. A higher IC25 goes with weaker potency. In general, IC75 refers to the concentration needed for an effect of 75%. Broadly, the IC50 is the concentration that inhibits the measured activity by half. By cell viability is commonly meant a per cent measure of how many cells are alive, often set against a control. Read a low cell viability as a greater loss of cells.

In brackets after ≈: the same amount, converted by molar mass. Like-named read-outs stand apart in the source and are kept apart here.

Data set [1] has as its system RPE cells. The experiment in a line: Cell viability and growth measurement of RPE cells (MTT assay), cytotoxicity test. The data set is classed as cell-based. To be noted: cytotoxicity to RPE cells, 24 hours. The method, then:
The cell culturing comprises the following steps. • 1.
Before experiments, the medium was replaced by serum-free medium. […] After placed in an incubator, the cells were cultured for 24 hours after treated by various concentrations of embodiments 1-5. Next, 1.0 mg/mL 3-(4,5-Dimethylthiazol-2-yl)-2,5-diphenyltetrazolium bromide (MTT) was added and reacted at 37° C. for 1 hour. Afterwards, 200 μL dimethyl sulfoxide (DMSO) was added into each well and shake in the dark at room temperature for 10 minutes after slight mixing. After the residual cells were completely dissolved, an enzyme immunoassay analyzer (MRX microplate reader, USA) was used to detect the 550 nm absorbance of each well. The cells untreated by embodiments were used as a control group after culturing for 24 hours.
One purpose of the example 1 is to test the cytotoxicity of the embodiments 1-5 to the RPE cells and the promotion of the embodiments 1-5 to the RPE cell growth. The mitochondrial enzyme of live cells can reduce the MTT to formazan of purple crystal dissolved by DMSO. In short, the metabolic activity of cells is used to determine whether cells are alive or not. The measured dissolving absorbance is equal to the cell viability. Therefore, the more the cells alive, the higher the absorbance. The calculating formula of the cell viability was shown below. Cell viability (%)=(light absorbance after cells treated by drugs for 24 hours/light absorbance of the control group after 24 hours)×100%
If P<0.05, it indicates a significant difference.
Referring to FIGS. 1-5, which are diagrams showing cytotoxicity testing results according to the instant disclosure respectively.
(Tetrazolium dyes change colour on reduction, which living cells bring about.)

The test system of data set [2] is RPE cells. The data set is classed as cell-based. To be noted: 0.1 mM H2O2. The method, then:
(§1) The cell culturing comprises the following steps. • 1. RPE cell clones were taken out from anti-frozen tubes in liquid nitrogen and quickly moved to a sterile hood after thawed in 37° C. water bath for 1 minute. RPE cell clones were taken out and placed in 10 cm dishes having 10 mL DMEM (Dulbecco's Modified Eagle Medium) therein. 10% inactivated fetal bovine serum (FBS), 2 mM L-glutamine, 100 U/mL penicillin, and 100 µg/mL streptomycin were added into the DMEM. • 2. The dishes were placed in a 37° C. incubator and cultured in conditions of a mixture gas of 95% air and 5% CO2, as well as 70% humidity. The old mediums were replaced by fresh mediums every 3 days. Serum-free DMEM was used instead of the mediums before performing experiments. • 3. When cells proliferated to nearly saturation, the numbers of cells were counted by a cell counter. […] Since RPE cells are attachment type cells, the medium containing the cells was transferred into 15 mL centrifugation tubes and then centrifuged at 72 g for 5 mines at room temperature when the medium was replaced. After centrifugation, the supernatant was removed and then fresh medium was added for culturing.
(§2) Before experiment, the medium was replaced by serum-free medium. Fixed quantity of RPE cells (2×10^5 cells/mL) were respectively placed in 96 wells of a plate. […] Next, different concentrations of oxidative stress inducer were added to treat the cells. […] The blue light having a wavelength of 480 nm and an illuminance of 350 lux was emitted by a blue light-emitting-diode (LED). Subsequently after treated by irradiating with blue light for 7 days or oxidative stress inducer for 24 hours, 0.5 mg/mL of MTT was added and reacted at 37° C. for 2 hours. Afterwards, 200 μL DMSO was added to each well. After slight mixing, the plate was vibrated in the dark for 10 minutes. After completely dissolving the residual cells, the enzyme immunoassay analyzer was used to detect the absorbance of each well. The cells untreated by oxidative stress inducers and embodiments were used as the control group. […]

Data set [3] relates to RPE cells. The following applies: for most effective action concentration range to t-BHP: t-BHP-induced cytotoxicity. The protocol: as §1, §2
Data set [4] has as its system RPE cells. The experiment in a line: Protective effect to blue light irradiation-induced cytotoxicity (MTT assay). To be noted: for most effective action concentration range to blue light irradiation: blue light-induced cytotoxicity. The protocol:
as §1
Before experiment, the medium was replaced by serum-free medium. Fixed quantity of RPE cells (2×10^5 cells/mL) were respectively placed in 96 wells of a plate. […] Next, different concentrations of oxidative stress inducer were added to treat the cells. […] The blue light having a wavelength of 480 nm and an illuminance of 350 lux was emitted by a blue light-emitting-diode (LED). […] Afterwards, 200 μL DMSO was added to each well. After slight mixing, the plate was vibrated in the dark for 10 minutes. After completely dissolving the residual cells, the enzyme immunoassay analyzer was used to detect the absorbance of each well. The cells untreated by oxidative stress inducers and embodiments were used as the control group.
The statistical analysis was performed by Student's t-test or one way ANOVA. If P<0.05, it indicates a significant difference.
The concentrations of embodiment 3 were 15.625, 31.25, and 62.5 μg/mL. […]

Data set [5] deals with RPE cells. Briefly: Protective effect to NaN3-induced cytotoxicity (MTT assay). To be noted: 10 mM NaN3 (viability about 50% without treatment); medium and high concentrations. The protocol:
as §1, with “After centrifugation, the supernatant was removed and then fresh medium was added for culturing.” left out
Before experiment, the medium was replaced by serum-free medium. Fixed quantity of RPE cells (2×10^5 cells/mL) were respectively placed in 96 wells of a plate. […] After completely dissolving the residual cells, the enzyme immunoassay analyzer was used to detect the absorbance of each well. […]

In data set [1], `C[C@@H]1O[C@@H](O[C@@H]2[C@@H](O)[C@H](OCCc3ccc(O)c(O)c3)O[C@H](CO)[C@H]2OC(=O)/C=C/c2ccc(O)c(O)c2)[C@H](O)[C@H](O)[C@H]1O` [Embodiment 3, Acteoside] yielded an IC25 of 31.25 µg/mL (≈ 50 µM) and an IC75 of 125 µg/mL (≈ 200 µM). Also, the IC50 in data set [1] (read-out: IC50) turned out to be 62.5 µg/mL (≈ 100 µM). The “protection of cells from H2O2 damage” value in data set [2] was “protected”. Further, in data set [3], the “cytotoxicity response at high concentration” value is recorded as “reasonable cytotoxicity responses were observed”; the “most effective action concentration range to t-BHP” value is “between low and medium concentrations”. For the same compound, the cell viability result in data set [4] (5 days, 31.25 µg/mL) is recorded as “above 90%”. In addition, in data set [4], the “most effective action concentration range to blue light irradiation” value was “between low and medium concentrations”.

In data set [1], `C[C@@H]1O[C@@H](O[C@@H]2[C@@H](O)[C@H](OCCc3ccc(O)c(O)c3)O[C@H](COC(=O)/C=C/c3ccc(O)c(O)c3)[C@H]2O)[C@H](O)[C@H](O)[C@H]1O` [Embodiment 4, Isoacteoside] yielded an IC25 of 31.25 µg/mL (≈ 50 µM) and an IC75 of 125 µg/mL (≈ 200 µM). For the same compound, in data set [1] (read-out: IC50), the IC50 came to 62.5 µg/mL (≈ 100 µM). The same compound had a cell viability in data set [5] of roughly 100%. For the same compound, the “most effective action concentration range to blue light irradiation” value in data set [4] is “between low and medium concentrations”.

In data set [1], Tubuloside A [Embodiment 5] yielded an IC25 of 150 µg/mL, an IC50 of 200 µg/mL and an IC75 of 250 µg/mL. Besides, the “protection of cells from H2O2 damage” value in data set [2] is “protected”. In data set [5], this compound showed a cell viability of roughly 100%.

In data set [1], echinacoside [Embodiment 2] registered an IC25 of 50 µg/mL, an IC50 of 75 µg/mL and an IC75 of 100 µg/mL. In data set [2], the “protection of cells from H2O2 damage” value was “protected”. In data set [3], the “most effective action concentration range to t-BHP” value was “between low and medium concentrations”.
